Reference: patent US11377441B2, “Covalent inhibitors of KRAS” (Araxes Pharma LLC, priority 2017, dated 2022)

target: T1, KRAS G12C 1-169, his-tagged protein, GDP-loaded (Homo sapiens, UniProt P01116, G12C); test: Biochemical assay: covalent modification of KRAS G12C measured by mass spectrometry (RapidFire/TOF or Q-Exactive); format: binding; settings: covalent binding to (modification of) KRAS G12C after a ten minute incubation period
T1 construct: KRAS G12C 1-169, his-tagged protein, GDP-loaded
Experimental: Test compounds were prepared as 10 mM stock solutions in DMSO (Fisher cat #BP-231-100). KRAS G12C 1-169, his-tagged protein, GDP-loaded is diluted to 2 μM or 0.5 μM in buffer (20 mM Hepes, 150 mM NaCl, 1 mM MgCl2). Compounds were tested for activity as follows:
Compounds were diluted to 50× final test concentration in DMSO in 96-well storage plates. Compound stock solutions were vortexed before use and observed carefully for any sign of precipitation. Dilutions are as follow: • For 100 μM final compound concentration, compounds were diluted to 5000 μM (5 μL 10 mM compound stock+5 μL DMSO and mixed well by pipetting. • For 30 μM final compound concentration, compounds were diluted to 1500 μM (3 μL 10 mM compound stock+17 μL DMSO) and mixed well by pipetting. • For 10 μM final compound concentration, compounds were diluted to 500 μM (2 μL 10 mM compound stock+38 μL DMSO) and mixed well by pipetting. 49 μL of the stock protein solution was added to each well of a 96-well PCR plate (Fisher cat #1423027). 1 μL of the diluted 50× compounds were added to appropriate wells in the PCR plate using 12-channel pipettor. Reactions were mixed carefully and thoroughly by pipetting up/down with a 200 μL multi-channel pipettor. The plate was sealed well with aluminum plate seal, and stored in drawer at room temperature for 10 minutes, 30 minutes, 2 hours or 24 hours. 5 μL of 2% formic acid (Fisher cat #A117) in de-ionized H2O was then added to each well followed by mixing with a pipette. The plate was then resealed with aluminum seal and stored on dry ice until analyzed as described below.
The above described assays were analyzed by mass spectrometry according to one of the following two procedures:
The MS instrument was set to positive polarity, 2 GHz resolution, and low mass (1700) mode and allowed to equilibrate for 30 minutes. The instrument was then calibrated, switched to acquisition mode and the appropriate method loaded.
After another 30 minute equilibration time, a blank batch (i.e., buffer) was run to ensure equipment is operating properly. The samples were thawed at 37° C. for 10 minutes, briefly centrifuged, and transfer to the bench top. Wells A1 and H12 were spiked with 1 μL 500 μM internal standard peptide, and the plates centrifuged at 2000×g for 5 minutes. The method was then run and masses of each individual well recorded.
The masses (for which integration data is desired) for each well were pasted into the platemap and exported from the analysis. Masses for the internal standards were exported as well. The data at 50 ppm was extracted for the +19 charge state, and identity of well A1 was assigned using the internal standard spike and integrated. Peak data was exported as a TOF list and the above steps were repeated individually, for the +20, 21, 22, 23, 24, and 25 charge states.
The masses and peak intensities of KRAS G12C protein species were measured using a Dionex RSLCnano system (Thermo Scientific) connected to a Q Exactive Plus mass spectrometer (Thermo Scientific).
[…] of sample was each loaded onto a Aeris™ 3.6 μm WIDEPORE C4 200 Å, LC Column 50×2.1 mm column maintained at 40° C. at a flow rate of 600 μL/min with 20% Solvent A (0.1% formic acid in H2O) and […] (0.1% formic acid in acetonitrile). The liquid chromatography conditions were 20% solvent B for 1 minute, 20% to 60% solvent B for 1.5 minutes, 60% to 90% solvent for 0.5 minute, 90% solvent B for 0.2 minute, 90% to 20% solvent B for 0.2 minute, and then equilibrated for 1.6 minutes before the following sample injection. The flow rate was maintained at 600 μL/min throughout the sample analysis.
The mass spectrometer was operated in profile mode at a resolution of 17500, 5 microscans, using 50 msec max injection time and an AGC target of 1×10^6, and a full mass range from 800-1850 m/z was recorded. The HCD trapping gas was optimized for maximum sensitivity for intact proteins. […]

| Compound | Binding % |
| --- | --- |
| 1-((2R,5S)-4-(6- chloro-7-(1,6- dimethyl-1H- benzo[d][1,2,3]triazol- 7-yl)-2-(3- (dimethylamino)azetidin- 1-yl)-8- flurooquinazolin-4- yl)-2,5- dimethylpiperazin-1- yl)prop-2-en-1-one [Compound 137] | + (+ indicates binding activity greater than 0% and up to 50%) |
| C=CC(=O)N1C[C@H](C)N(c2nc(N3CC(N(C)C)C3)nc3c(F)c(-c4c(C)ccc5[nH]nc(N)c45)c(Cl)cc23)C[C@H]1C (atropisomer, axis not shown) [Compound 35, 1-((2R,5S)-4-((R)-7-(3-amino-5-methyl-1H-indazol-4-yl)-6-chloro-2-(3-(dimethylamino)azetidin-1-yl)-8-fluoroquinazolin-4-yl)-2,5-dimethylpiperazin-1-yl)prop-2-en-1-one] | +++ (+++ indicates binding activity greater than 80%) |
| C=CC(=O)N1CCN(c2nc(N3CC(N(C)C)C3)nc3c(F)c(-c4c(C)ccc5[nH]nc(N)c45)c(Cl)cc23)CC1 (atropisomer, axis not shown) [Compound 37, (R)-1-(4-(7-(3-amino-5-methyl-1H-indazol-4-yl)-6-chloro-2-(3-(dimethylamino)azetidin-1-yl)-8-fluoroquinazolin-4-yl)piperazin-1-yl)prop-2-en-1-one] | +++ (+++ indicates binding activity greater than 80%) |
| C=CC(=O)N1CCN(c2nc(N3CC(N(C)C)C3)nc3c(F)c(-c4c(C)ccc5[nH]nc(N)c45)c(Cl)cc23)CC1 (atropisomer, axis not shown) [Compound 38, (S)-1-(4-(7-(3-amino-5-methyl-1H-indazol-4-yl)-6-chloro-2-(3-(dimethylamino)azetidin-1-yl)-8-fluoroquinazolin-4-yl)piperazin-1-yl)prop-2-en-1-one] | + (+ indicates binding activity greater than 0% and up to 50%) |
| C=CC(=O)N1C[C@H](C)N(c2nc(OCCN3CCCC3)nc3c(F)c(-c4c(C)ccc5[nH]nc(N)c45)c(Cl)cc23)C[C@H]1C (atropisomer, axis not shown) [Compound 53, 1-((2R,5S)-4-((S)-7-(3-amino-5-methyl-1H-indazol-4-yl)-6-chloro-8-fluoro-2-(2-(pyrrolidin-1-yl)ethoxy)quinazolin-4-yl)-2,5-dimethylpiperazin-1-yl)prop-2-en-1-one] | + (+ indicates binding activity greater than 0% and up to 50%) |
| C=CC(=O)N1C[C@H](C)N(c2nc(OCCN3CCOCC3)nc3c(F)c(-c4c(C)ccc5[nH]nc(N)c45)c(Cl)cc23)C[C@H]1C (atropisomer, axis not shown) [Compound 58, 1-((2R,5S)-4-((S)-7-(3-amino-5-methyl-1H-indazol-4-yl)-6-chloro-8-fluoro-2-(2-morpholinoethoxy)quina-zolin-4-yl)-2,5-dimethylpiperazin-1-yl)prop-2-en-1-one] | + (+ indicates binding activity greater than 0% and up to 50%) |
| C=CC(=O)N1C[C@H](C)N(c2nc(OCCN3CCOCC3)nc3c(F)c(-c4c(C)ccc5[nH]nc(N)c45)c(Cl)cc23)C[C@H]1C (atropisomer, axis not shown) [Compound 59, 1-((2R,5S)-4-((R)-7-(3-amino-5-methyl-1H-indazol-4-yl)-6-chloro-8-fluoro-2-(2-morpholinoethoxy)quina-zolin-4-yl)-2,5-dimethylpiperazin-1-yl)prop-2-en-1-one] | +++ (+++ indicates binding activity greater than 80%) |
| C=CC(=O)N1C[C@H](C)N(c2nc(OCCN3CCC(F)(F)C3)nc3c(F)c(-c4c(C)ccc5[nH]nc(N)c45)c(Cl)cc23)C[C@H]1C (atropisomer, axis not shown) [Compound 66, 1-((2R,5S)-4-((S)-7-(3-amino-5-methyl-1H-indazol-4-yl)-6-chloro-2-(2-(3,3-difluoropyrrolidin-1-yl)ethoxy)-8-fluoroquinazolin-4-yl)-2,5-dimethylpiperazin-1-y)prop-2-en-1-one] | + (+ indicates binding activity greater than 0% and up to 50%) |
| C=CC(=O)N1C[C@H](C)N(c2nc(OCCN3CCC(F)(F)C3)nc3c(F)c(-c4c(C)ccc5[nH]nc(N)c45)c(Cl)cc23)C[C@H]1C (atropisomer, axis not shown) [Compound 67, 1-((2R,5S)-4-((R)-7-(3-amino-5-methyl-1H-indazol-4-yl)-6-chloro-2-(2-(3,3-difluoropyrrolidin-1-yl)ethoxy)-8-fluoroquinazolin-4-yl)-2,5-dimethylpiperazin-1-yl)prop-2-en-1-one] | +++ (+++ indicates binding activity greater than 80%) |
| C=CC(=O)N1C[C@H](C)N(c2nc(N3CC(N(C)C)C3)nc3c(F)c(-c4c(C)ccc5[nH]nc(C6CC6)c45)c(Cl)cc23)C[C@H]1C (atropisomer, axis not shown) [Compound 75, 1-((2R,5S)-4-((S)-6-chloro-7-(3-cyclopropyl-5-methyl-1H-indazol-4-yl)-2-(3-(dimethylamino)azetidin-1-yl)-8-fluoroquinazolin-4-yl)-2,5-dimethylpiperazin-1-yl)prop-2-en-1-one] | + (+ indicates binding activity greater than 0% and up to 50%) |
| C=CC(=O)N1C[C@H](C)N(c2nc(N3CC(N(C)C)C3)nc3c(F)c(-c4c(C)ccc5[nH]nc(C6CC6)c45)c(Cl)cc23)C[C@H]1C (atropisomer, axis not shown) [Compound 76, 1-((2R,5S)-4-((R)-6-chloro-7-(3-cyclopropyl-5-methyl-1H-indazol-4-yl)-2-(3-(dimethylamino)azetidin-1-yl)-8-fluoroquinazolin-4-yl)-2,5-dimethylpiperazin-1-yl)prop-2-en-1-one] | +++ (+++ indicates binding activity greater than 80%) |
| C=CC(=O)N1C[C@H](C)N(c2nc(OCCN3CC(F)(F)C3)nc3c(F)c(-c4c(C)ccc5[nH]nc(N)c45)c(Cl)cc23)C[C@H]1C (atropisomer, axis not shown) [Compound 83, 1-((2R,5S)-4-((S)-7-(3-amino-5-methyl-1H-indazol-4-yl)-6-chloro-2-(2-(3,3-difluoroazetidin-1-yl)ethoxy)-8-fluoroquinazolin-4-yl)-2,5-dimethylpiperazin-1-yl)prop-2-en-1-one] | + (+ indicates binding activity greater than 0% and up to 50%) |
| C=CC(=O)N1C[C@H](C)N(c2nc(OCCN3CC(F)(F)C3)nc3c(F)c(-c4c(C)ccc5[nH]nc(N)c45)c(Cl)cc23)C[C@H]1C (atropisomer, axis not shown) [Compound 84, 1-((2R,5S)-4-((R)-7-(3-amino-5-methyl-1H-indazol-4-yl)-6-chloro-2-(2-(3,3-difluoroazetidin-1-yl)ethoxy)-8-fluoroquinazolin-4-yl)-2,5-dimethylpiperazin-1-yl)prop-2-en-1-one] | +++ (+++ indicates binding activity greater than 80%) |
| C=CC(=O)N1C[C@H](C)N(c2nc(N3CC(N(C)C)C3)nc3c(F)c(-c4c(C)ccc5cnn(C)c45)c(Cl)cc23)C[C@H]1C (atropisomer, axis not shown) [Compound 87, 1-((2R,5S)-4-((R)-6-chloro-7-(1,6-dimethyl-1H-indazol-7-yl)-2-(3-(dimethylamino)azetidin-1-yl)-8-fluoroquinazolin-4-yl)-2,5-dimethylpiperazin-1-yl)prop-2-en-1-one] | +++ (+++ indicates binding activity greater than 80%) |
